In patent publication US6395906B1, “Intermediates to pesticidal 1-arylpyrazoles” (Rhone-Poulenc Inc., priority 1995, dated 2002):

Columns and labels:
Format in all cases: in vivo
[1] = test system: black cutworm (Agrotis ipsilon); assay: Black cutworm systemic test (BCW-Sys); details: soil drench 10.0 ppm, corn seedling clipped ten days after treatment; mortality 4 days after infestation
Source text: (§1) For cotton aphid systemic tests and black cutwork—systemic tests, the water-acetone-DMF-emulsifier solution was adjusted for a treatment rate of 10.0 ppm soil concentration.
Black cutworm—systemic test (BCW-Sys): Corn seeds were placed on top of the soil surface in pots containing moist soil. The test compound solution was applied as a drench to the top of the soil and seeds for a treatment rate equivalent to 10.0 ppm soil concentration. As an untreated control, an aliquot of water-acetone-DMF-emulsifier solution containing no test compound was applied in a similar manner. The soil surface and seeds were covered with moist soil. The pots were held in the greenhouse for the duration of the bioassay. Ten days after treatment, the corn seedling was clipped and placed in a plastic cup with 2 late second to early third instar black cutworm larvae. Mortality was assessed visually 4 days after infestation.

[2] = test system: southern root-knot nematode (Meloidogyne incognita); assay: Southern root-knot nematode (SRKN) soil test; details: soil treatment 23 kg/ha; tomato or cotton root galling rated after 2-3 weeks
Description: (§2) For the tick, aphids, souther armyworm, tobacco budworm, house fly, Mexican bean beetle, American cockroach, cat flea, souther corn rootworm, western corn rootworm, black cutworm, and southern root-knot nematode, a solution or suspension was prepared by adding the test compound to a solution of dimethylformamide, acetone, emulsifiers which are alkylaryl polyether alcohols organic sulfonates, and water. The result was a 100 or 500 ppm concentration of the test compound.
For the southern root-knot nematode tests, the water-acetone-DMF-emulsifier solution was adjusted for a treatment rate of 23 kg/ha soil concentration.
Southern root-knot nematode (SRKN): Eggs and second stage juveniles (J2s) of southern root-knot nematodes were obtained from infected roots of reared tomato plants. Pots containing moist soil were treated with the test compound solution for a treatment rate of 23 kg/ha. As an untreated control, an aliquot of a water-acetone-DMF-emulsifier solution containing no test compound was applied in a similar manner. Immediately after treatment, eggs or J2s of southern root-knot nematode were added to the treated soil. For test with cotton, the seeds were placed on top of the soil the day of treatment and inoculation. For the tests with tomato, the seedlings were transplanted in the pot three days after treatment. The pots were kept in the greenhouse for 2-3 weeks. At the termination of the test, roots of the tomato or cotton seedlings were evaluated for galling on a rating scale from 1 to 5 with one equal to severe galling, relative to untreated control, and five to no galling, i.e., complete control.

[3] = test system: greenbug aphid (Schizaphis graminum); assay: Greenbug aphid systemic test (GA-Sys); details: soil drench 10 or 25 ppm, sorghum; aphid control rated one and three days after infestation
Source text: For the greenbug aphid systemic test, the water-acetone-DMF-emulsifier solution was adjusted for a treatment rate of 10 or 25 ppm soil concentration.
Greenburg aphid—systemic test (GA-Sys): Sorghum seeds were placed on top of the soil surface in pots containing moist soil. The test compound solution was applied as a drench to the top of the soil and seeds for a treatment rate equivalent to 10 or 25 ppm soil concentration. As an untreated control, an aliquot of a water-acetone-DMF-emulsifier solution containing no test compound was applied in a similar manner. The soil surface and seeds were covered with moist soil. The pots were held in the greenhouse for the duration of the bioassay. When the sorghum seeds germinated, greenbug aphids were sprinkled evenly over the sorghum pots to about 50 aphids per pot. The plants were rated for aphid control one and three days after infestation.

[4] = test system: cotton aphid (Aphis gossypii); assay: Cotton aphid (CA) foliar spray test; details: cotton plants wet to runoff, 100 or 500 ppm; dead aphids counted after three days
Description: as §2
Buckthorn aphid (BA) or cotton aphid (CA): Adult and nymphal stages of buckthorn or cotton aphid were reared on potted dwarf nasturtium or cotton plants, respectively. Plants infested with 100-150 aphids were wet to runoff with the 100 or 500 ppm test compound formulation. As an untreated control, a water-acetone-DMF-emulsifier solution containing no test compound was also applied to runoff to infested plants. The treated plants were stored for one day for buckthorn aphid and three days for cotton aphid, after which the dead aphids were counted.

[5] = test system: southern armyworm (Spodoptera eridania); assay: Southern armyworm (SAW) treated bean leaf test; details: bean leaves, 100 or 500 ppm; second instar larvae, five days
Description: as §2
(§3) Southern armyworm (SAW), Mexican bean beetle (MBB): Bean leaves were wet to runoff with the 100 or 500 ppm test compound formulation. As an untreated control, a water-acetone-DMF-emulsifier solution containing no test compound was also applied wet to runoff to bean leaves. Five or six randomly selected second instar southern armyworn larvae or Mexican bean bettle larvae were introduced into each plastic container with the dry treated leaves. The container was closed and held for five days. Larvae which were unable to move the length of the body, even upon stimulation by prodding, were considered dead.

[6] = test system: tobacco budworm (Heliothis virescens); assay: Tobacco budworm (TBW) treated cotton leaf test; details: cotton leaves, 100 ppm; second instar larvae, five days
Description: as §2
Tobacco budworm (TBW): Cotton leaves were wet to runoff with the 100 ppm test compound formulation. As an untreated control, a water-acetone-DMF-emulsifier solution containing no test compound was also applied wet to runoff to cotton leaves. Ten randomly selected second instar tobacco budworm larvae were introduced into plastic containers in which moist dental wicks and the dry treated leaves had been placed. The cups were closed and held for five days. Larvae which were unable to move the length of the body, even upon stimulation by prodding, were considered dead.

[7] = test system: house fly (Musca domestica); assay: House fly (HF) bait test; details: sucrose bait, 100 or 250 ppm; adult flies, mortality after 24 hours
Description: as §2
For house fly tests, the water-acetone-DMF-emulsifier solution was adjusted with a 20% by weight aqueous solution of sucrose to provide a final 100 or 250 ppm concentration of the test compound.
House fly (HF): Four to six day old adult house flies were used. The files were immobilized by anesthetizing with carbon dioxide. A bait cup was prepared which contained the 100 or 250 ppm test compound formulation/sucrose solution and one or two absorbent cotton pad(s). As an untreated control, a water-acetone-DMF-emulsifier-sucrose solution containing no test compound was applied in a similar manner. The bait cup was introduced inside the cage prior to admitting 12-25 anesthetized flies. Mortality was assessed after 24 hours.

[8] = test system: American cockroach (Periplaneta americana); assay: American cockroach (ACR) treated food pellet test; details: food pellets with 500 ppm formulation; nymphs, contact and feeding mortality 1 and 5 days after infestation
Description: as §2
American cockroach (ACR): Cat food or dog food pellets were added to jars containing 1-2 mls of the 500 ppm test formulation. As an untreated control, an aliquot of a water-acetone-DMF-emulsifier solution containing no test compound was applied in a similar manner. After 48 hours, roach nymphs were added to the jar. Contact and feeding mortally was assessed 1 and 5 days after infestation.

[9] = test system: western corn rootworm (Diabrotica virgifera virgifera); assay: Western corn rootworm (WCRW) soil test; details: soil concentration 0.15 or 0.5 ppm; neonate larvae, mortality six days after infestation
Description: as §2
For the western corn rootworm test, the water-acetone-DMF-emulsifier solution was adjusted for a treatment rate of 0.15 or 0.5 ppm.
Western corn rootworm (WCRW): The 500 ppm test formulation was applied to dry sandy loam soil contained in a glass jar for a soil concentration of 0.15 or 0.5 ppm. As an untreated control, an aliquot of a water-acetone-DMF-emulsifier solution containing no test compound was applied in a similar manner. After incubating covered for 24 hours, the soil was mixed and four germinated corn seedlings were added to the jar. Ten neonate western corn rootworm larvae were placed in the jar. Six days after infestation, mortality was assessed by Berlese funnel extraction.

[10] = test system: southern corn rootworm (Diabrotica undecimpunctata howardi); assay: Southern corn rootworm (SCRW) soil test; details: soil concentration 2.5, 5, 6.75 or 10 ppm; mortality eight days after infestation
Description: as §2
For southern corn rootworm and black cutworm tests, the water-acetone-DMF-emulsifier solution was adjusted for a treatment rate of 2.5, 5, 6.75 or 10 ppm.
Southern corn rootworm (SCRW), Black cutworm (BCW): Corn seeds were placed in a glass jar and covered with dry sandy loam soil. The 500 ppm test formulation was applied for a soil concentration of 2.5, 5, 6.75 or 10 ppm. As an untreated control, an aliquot of a water-acetone-DMF-emulsifier solution containing no test compound was applied in a similar manner. After incubating covered for 24 hours, the soil was mixed and inoculated with approximately 25 southern corn rootworm eggs. Following an additional 48 hours, two late second to early third instar black cutworms were placed in the jar with a portion of insect diet. Eight days after infestation, mortality was assessed visually for cutworm and by Berlese funnel extraction for rootworm.

[11] = test system: cotton aphid (Aphis gossypii); assay: Cotton aphid systemic test (CA-Sys); details: soil drench 10.0 ppm, aphid control rated three and six days after infestation
Source text: as §1
Cotton aphid—systemic test (CA-Sys): Cotton seeds were placed on top of the soil surface in pots containing moist soil. The test compound solution was applied as a drench to the top of the soil and seeds for a treatment rate equivalent to 10.0 ppm soil concentration. As an untreated control, an aliquot of a water-acetone-DMF-emulsifier solution containing no test compound was applied in a similar manner. The soil surface and seeds were covered with moist soil. The pots were held in the greenhouse for the duration of the bioassay. When the cotyledons of the cotton were expanded (approximately 7 days after planting), the cotton was infested with approximately 25 cotton aphids (mixed population). The plant were rated for aphid control three and six days after infestation.

[12] = test system: Mexican bean beetle (Epilachna varivestis); assay: Mexican bean beetle (MBB) treated bean leaf test; details: bean leaves, 100 or 500 ppm; second instar larvae, five days
Description: as §2, §3

| Structure (SMILES) | BCW-Sys [1] | SRKN [2] | GA-Sys [3] | CA [4] | TBW [6] | ACR [8] | WCRW [9] | further results |
| --- | --- | --- | --- | --- | --- | --- | --- | --- |
| CC(O)c1c(SC(F)(F)F)c(C#N)nn1-c1c(Cl)cc(C(F)(F)F)cc1Cl (centres unmarked) [Compound 8, 3-Cyano-1-(2,6-dichloro-4-trifluoromethylphenyl)-5-(1-hydroxy)ethyl-4-trifluoromethylthiopyrazole] | + (active against 1 or more insects described above up to 100% mortality. This activity is indicated by a “+”) |  |  |  |  |  |  |  |
| N#Cc1nn(-c2c(Cl)cc(C(F)(F)F)cc2Cl)c(CO)c1[S+]([O-])C(F)(F)F (centres unmarked) [Compound 12, 3-Cyano-1-(2,6-dichloro-4-trifluoromethylphenyl)-5-(hydroxy)methyl-4-trifluoromethylsulfinylpyrazole] | + (active against 1 or more insects described above up to 100% mortality. This activity is indicated by a “+”) | + (active against 1 or more insects described above up to 100% mortality. This activity is indicated by a “+”) | + (active against 1 or more insects described above up to 100% mortality. This activity is indicated by a “+”) |  |  |  |  |  |
| COC(C#N)c1c([S+]([O-])C(F)(F)F)c(C#N)nn1-c1c(Cl)cc(C(F)(F)F)cc1Cl (centres unmarked) [Compound 14, 3-Cyano-5-{(1-cyano-1-methoxy)methyl}-1-(2,6-dichloro-4-trifluoromethylphenyl)-4-trifluoromethylsulfinylpyrazole] |  | + (active against 1 or more insects described above up to 100% mortality. This activity is indicated by a “+”) |  | + (active against 1 or more insects described above up to 100% mortality. This activity is indicated by a “+”) | + (active against 1 or more insects described above up to 100% mortality. This activity is indicated by a “+”) | + (active against 1 or more insects described above up to 100% mortality. This activity is indicated by a “+”) | + (active against 1 or more insects described above up to 100% mortality. This activity is indicated by a “+”) | SAW [5]: + (active against 1 or more insects described above up to 100% mortality. This activity is indicated by a “+”); HF [7]: + (active against 1 or more insects described above up to 100% mortality. This activity is indicated by a “+”); SCRW [10]: + (active against 1 or more insects described above up to 100% mortality. This activity is indicated by a “+”) |
| N#Cc1nn(-c2c(Cl)cc(C(F)(F)F)cc2Cl)c(C(O)C(F)(F)F)c1SC(F)(F)F (centres unmarked) [Compound 17, 3-Cyano-1-(2,6-dichloro-4-trifluoromethylphenyl)-5-(1-hydroxy-2,2,2-trifluoroethyl)-4-trifluoromethylthiopyrazole] |  |  |  |  |  | + (active against 1 or more insects described above up to 100% mortality. This activity is indicated by a “+”) | + (active against 1 or more insects described above up to 100% mortality. This activity is indicated by a “+”) | CA-Sys [11]: + (active against 1 or more insects described above up to 100% mortality. This activity is indicated by a “+”) |
| C=C(OC(C)=O)c1c(S(=O)(=O)C(F)(F)F)c(C#N)nn1-c1c(Cl)cc(C(F)(F)F)cc1Cl [Compound 21, 3-Cyano-1-(2,6-dichloro-4-trifluoromethylphenyl)-5-(1-acetoxyethenyl)-4-trifluoromethylsulfonylpyrazole] |  |  | + (active against 1 or more insects described above up to 100% mortality. This activity is indicated by a “+”) | + (active against 1 or more insects described above up to 100% mortality. This activity is indicated by a “+”) | + (active against 1 or more insects described above up to 100% mortality. This activity is indicated by a “+”) |  | + (active against 1 or more insects described above up to 100% mortality. This activity is indicated by a “+”) | MBB [12]: + (active against 1 or more insects described above up to 100% mortality. This activity is indicated by a “+”) |
